# Patent US8513307B2, “N-phenylacetamide inhibitors of the enzyme SOAT-1 and pharmaceutical/cosmetic compositions comprised thereof” (Galderma Research & Development, priority 2007, dated 2013)
# pIC50: −log10 of the molar value.
# Target: T1, enzyme ACAT-1 (Homo sapiens, UniProt P35610)
# T1 construct: endogenous in cells; host or cells: HepG2
# T1 sequence (P35610 1-550): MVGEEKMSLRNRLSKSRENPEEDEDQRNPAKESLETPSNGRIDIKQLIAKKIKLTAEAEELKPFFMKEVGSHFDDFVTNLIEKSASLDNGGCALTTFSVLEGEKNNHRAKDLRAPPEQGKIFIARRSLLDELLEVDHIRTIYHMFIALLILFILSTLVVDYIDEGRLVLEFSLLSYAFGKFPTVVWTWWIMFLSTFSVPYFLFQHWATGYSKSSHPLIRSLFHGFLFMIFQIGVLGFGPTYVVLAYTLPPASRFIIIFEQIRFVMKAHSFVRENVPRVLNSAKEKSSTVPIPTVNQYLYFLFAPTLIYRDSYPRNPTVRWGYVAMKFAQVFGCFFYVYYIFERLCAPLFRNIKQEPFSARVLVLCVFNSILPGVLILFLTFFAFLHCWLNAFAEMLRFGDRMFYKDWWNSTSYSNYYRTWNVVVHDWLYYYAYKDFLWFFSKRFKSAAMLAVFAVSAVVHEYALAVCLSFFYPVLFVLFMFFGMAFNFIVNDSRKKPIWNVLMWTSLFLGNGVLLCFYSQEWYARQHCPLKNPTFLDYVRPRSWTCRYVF
# Test: primary enzymatic test HepG2: NBD-cholesterol fluorescence test of inhibitory action on ACAT-1 (SOAT-1)
# Type: cell-based
# Settings: HepG2 cells, NBD-cholesterol 1 μg/ml, incubation 6 h at 37° C., fluorescence excitation 490 nm, emission 540 nm
# Description: The compounds (I) according to the invention, as well as their pharmaceutically acceptable salts, solvates and/or hydrates, have inhibitory properties on the enzyme SOAT-1. This inhibitory activity on the enzyme SOAT-1 is measured according to a primary enzymatic test HepG2, as described in Example 16.
# The compounds of formula (I) according to the invention were subjected to a test allowing their inhibitory action to be evaluated with respect to the enzyme ACAT-1 inspired by the following publication: “Identification of ACAT1- and ACAT2-specific inhibitors using a novel, cell-based fluorescence assay: individual ACAT uniqueness”, J. Lipid. Res (2004) vol 45, pages 378-386. The principle of this test is based on the employment of NBD-cholesterol, an analogue of cholesterol whose fluorescence depends on its environment. When this is present in a polar environment, it is weakly fluorescent although in a nonpolar environment it is strongly fluorescent. Free NBD-cholesterol locates itself in the cell membranes and is weakly fluorescent in this polar environment. When the NBD-cholesterol is esterified by ACAT, the ester of NBD-cholesterol locates itself in the nonpolar lipid droplets and is in that case strongly fluorescent.
# The method below is applied: The HepG2 cells are incubated in the presence of NBD-cholesterol (1 μg/ml) and of the compound of formula (I) to be tested in black 96-well plates with a transparent base at a rate of 30 000 cells per well. After incubation for 6 h at 37° C., under 5% CO2, the medium is eliminated by turning over and the cells are washed with 2 times 100 μl of PBS. After addition of 50 μl of lysis buffer (NaPO4 10 mM, Igepal 1%), the plates are stirred for 5 min and read in fluorescence (excitation 490 nm, emission 540 nm) on a FUSION apparatus (Perkin-Elmer).
row,SMILES,pIC50
1,"CC(C)c1cccc(C(C)C)c1NC(=O)CN1CC2(CCCCC2)N(c2ccccc2)C1=O [I.1, N-(2,6-Diisopropylphenyl)-2-(2-oxo-1-phenyl-1,3-diazaspiro[4.5]dec-3-yl)-acetamide]",8.27
2,"Cc1ccc(N2C3(CCCCC3)CN(CC(=O)Nc3c(C(C)C)cccc3C(C)C)S2(=O)=O)cc1 [I.5, N-(2,6-Diisopropylphenyl)-2-(2,2-dioxo-1-p-tolyl-2lambda*6*-thia-1,3-di-azaspiro[4.5]dec-3-yl)acetamide]",8.49
3,"CCC1(CC)CN(CC(=O)Nc2c(C(C)C)cccc2C(C)C)C(=O)N1c1ccc(C)cc1 [I.13, 2-(4,4-Diethyl-2-oxo-3-p-tolylimidazolidin-1-yl)-N-(2,6-diisopropylphenyl)-acetamide]",9.05
4,"CCc1ccc(N2C(=O)N(CC(=O)Nc3c(C(C)C)cccc3C(C)C)CC23CCCCC3)cc1 [I.9, N-(2,6-Diisopropylphenyl)-2-[1-(4-ethylphenyl)-2-oxo-1,3-diazaspiro-[4.5]dec-3-yl]acetamide]",8.15
